For 11 molecules, EC50 results are on record in patent publication US10577353B2, “5-(n-[6,5]-fused bicyclic aryl tetrahydroisoquinolin-6-yl) pyridin-3-yl acetic acid derivatives as inhibitors of human immunodeficiency virus replication” (priority 2015, dated 2020).

Molecules are shown by their SMILES.

The test system of this experiment is recombinant NL-RLuc virus (NL4-3 derived HIV). Put plainly: Inhibition of HIV replication (NL-RLuc virus in MT-2 cells, luciferase readout). Format: cell-based. The note with it: Human immunodeficiency virus 1, NL43, MT2, 120 h. The source says: Inhibition of HIV Replication:
A recombinant NL-RLuc proviral clone was constructed in which a section of the nef gene from NL4-3 was replaced with the Renilla Luciferase gene. This virus is fully infectious and can undergo multiple cycles of replication in cell culture. In addition, the luciferous reporter provides a simple and easy method for quantitating the extent of virus growth and consequently, the antiviral activity of test compounds. The plasmid pNLRLuc contains the proviral NL-Rluc DNA cloned into pUC 18 at the PvuII site. The NL-RLuc virus was prepared by transfection of 293T cells with the plasmid pNLRLuc. Transfections were performed using the LipofectAMINE PLUS kit from Invitrogen (Carlsbad, Calif.) according to the manufacturer and the virus generated was titered in MT-2 cells. For susceptibility analyses, the titrated virus was used to infect MT-2 cells in the presence of compound, and after 5 days of incubation, cells were processed and quantitated for virus growth by the amount of expressed luciferase. Assay media was RPMI 1640 supplemented with 10% heat inactivated fetal bovine serum (FBS), 100 units/ml penicillin G/100 units/ml streptomycin, 10 mM HEPES buffer pH 7.55 and 2 mM L-glutamine. The results from at least 2 experiments were used to calculate the EC50 values. Luciferase was quantitated using the Dual Luciferase kit from Promega (Madison, Wis.). Susceptibility of viruses to compounds was determined by incubation in the presence of serial dilutions of the compound. The 50% effective concentration (EC50) was calculated by using the exponential form of the median effect equation where (Fa)=1/[1+(ED50/drug conc.)^m] (Johnson V A, Byington R T. Infectivity Assay. In Techniques in HIV Research. ed. Aldovini A, Walker B D. 71-76. New York: Stockton Press. 1990).
Take `Cc1nc(C)c([C@H](OC(C)(C)C)C(=O)O)c(N2CCC(C)(C)CC2)c1-c1ccc2c(c1)CCN(c1nc3c(Cl)cccc3s1)C2` [Compound 7, (S)-2-(tert-butoxy)-2-(5-(2-(4-chlorobenzo[d]thiazol-2-yl)-1,2,3,4-tetrahydroisoquinolin-6-yl)-4-(4,4-dimethylpiperidin-1-yl)-2,6-dimethylpyridin-3-yl)acetic acid]: the EC50 worked out at 2 nM.

Regarding `Cc1nc(C)c([C@H](OC(C)(C)C)C(=O)O)c(N2CCC(C)(C)CC2)c1-c1ccc2c(c1)CCN(c1nc3ccc(F)cc3s1)C2` [Compound 8, (S)-2-(tert-butoxy)-2-(4-(4,4-dimethylpiperidin-1-yl)-5-(2-(6-fluorobenzo[d]thiazol-2-yl)-1,2,3,4-tetrahydroisoquinolin-6-yl)-2,6-dimethylpyridin-3-yl)acetic acid], the concentration giving a half-maximal response (EC50) worked out at 5 nM.

In the case of `CNc1nc(N2CCc3cc(-c4c(C)nc(C)c([C@H](OC(C)(C)C)C(=O)O)c4N4CCC(C)(C)CC4)ccc3C2)nc2nc[nH]c12` [Compound 23, (S)-2-(tert-butoxy)-2-(4-(4,4-dimethylpiperidin-1-yl)-2,6-dimethyl-5-(2-(6-(methylamino)-7H-purin-2-yl)-1,2,3,4-tetrahydroisoquinolin-6-yl)pyridin-3-yl)acetic acid], the EC50 is 62 nM.

Regarding `Cc1nc(C)c([C@H](OC(C)(C)C)C(=O)O)c(N2CCC(C)(C)CC2)c1-c1ccc2c(c1)CCN(c1nc3ncccc3s1)C2` [Compound 10, (S)-2-(tert-butoxy)-2-(4-(4,4-dimethylpiperidin-1-yl)-2,6-dimethyl-5-(2-(thiazolo[4,5-b]pyridin-2-yl)-1,2,3,4-tetrahydroisoquinolin-6-yl)pyridin-3-yl)acetic acid], the half-maximal effective concentration (EC50) is 2 nM.

Turning to `Cc1nc(C)c([C@H](OC(C)(C)C)C(=O)O)c(N2CCC(C)(C)CC2)c1-c1ccc2c(c1)CCN(c1ncnc3[nH]ccc13)C2` [Compound 20, (S)-2-(5-(2-(7H-pyrrolo[2,3-d]pyrimidin-4-yl)-1,2,3,4-tetrahydroisoquinolin-6-yl)-4-(4,4-dimethylpiperidin-1-yl)-2,6-dimethylpyridin-3-yl)-2-(tert-butoxy)acetic acid], the concentration for a half-maximal effect (EC50) was 3 nM.

`Cc1nc(C)c([C@H](OC(C)(C)C)C(=O)O)c(N2CCC(C)(C)CC2)c1-c1ccc2c(c1)CCN(c1nc(O)c3[nH]cnc3n1)C2` [Compound 21, (S)-2-(tert-butoxy)-2-(4-(4,4-dimethylpiperidin-1-yl)-5-(2-(6-hydroxy-7H-purin-2-yl)-1,2,3,4-tetrahydroisoquinolin-6-yl)-2,6-dimethylpyridin-3-yl)acetic acid]: the concentration giving a half-maximal response (EC50) was 5990 nM.

With `Cc1nc(N2CCc3cc(-c4c(C)nc(C)c([C@H](OC(C)(C)C)C(=O)O)c4N4CCC(C)(C)CC4)ccc3C2)c2cnn(C)c2n1` [Compound 19, (S)-2-(tert-butoxy)-2-(5-(2-(1,6-dimethyl-1H-pyrazolo[3,4-d]pyrimidin-4-yl)-1,2,3,4-tetrahydroisoquinolin-6-yl)-4-(4,4-dimethylpiperidin-1-yl)-2,6-dimethylpyridin-3-yl)acetic acid], the EC50 is 1 nM.

On to `Cc1nc(C)c([C@H](OC(C)(C)C)C(=O)O)c(N2CCC(C)(C)CC2)c1-c1ccc2c(c1)CCN(c1nc3cc(Cl)c(Cl)cc3s1)C2` [Compound 5, (S)-2-(tert-butoxy)-2-(5-(2-(5,6-dichlorobenzo[d]thiazol-2-yl)-1,2,3,4-tetrahydroisoquinolin-6-yl)-4-(4,4-dimethylpiperidin-1-yl)-2,6-dimethylpyridin-3-yl)acetic acid], for which the concentration for a half-maximal effect (EC50) was found to be 12 nM.

On to `Cc1nc(C)c([C@H](OC(C)(C)C)C(=O)O)c(N2CCC(C)(C)CC2)c1-c1ccc2c(c1)CCN(c1nccc3[nH]cnc13)C2` [Compound 24, (S)-2-(5-(2-(1H-imidazo[4,5-c]pyridin-4-yl)-1,2,3,4-tetrahydroisoquinolin-6-yl)-4-(4,4-dimethylpiperidin-1-yl)-2,6-dimethylpyridin-3-yl)-2-(tert-butoxy)acetic acid], for which the EC50 stood at 56 nM.

Consider `Cc1nc(C)c([C@H](OC(C)(C)C)C(=O)O)c(N2CCC(C)(C)CC2)c1-c1ccc2c(c1)CCN(c1nc3ccc(Cl)cc3s1)C2` [Compound 4, (S)-2-(tert-butoxy)-2-(5-(2-(6-chlorobenzo[d]thiazol-2-yl)-1,2,3,4-tetrahydroisoquinolin-6-yl)-4-(4,4-dimethylpiperidin-1-yl)-2,6-dimethylpyridin-3-yl)acetic acid], for which the EC50 is 19 nM.

Consider `Cc1nc(C)c([C@H](OC(C)(C)C)C(=O)O)c(N2CCC(C)(C)CC2)c1-c1ccc2c(c1)CCN(c1nc3cccnc3s1)C2` [Compound 2, (S)-2-(tert-butoxy)-2-(4-(4,4-dimethylpiperidin-1-yl)-2,6-dimethyl-5-(2-(thiazolo[5,4-b]pyridin-2-yl)-1,2,3,4-tetrahydroisoquinolin-6-yl)pyridin-3-yl)acetic acid], for which the concentration for a half-maximal effect (EC50) worked out at 1 nM.

By EC50 is commonly meant the concentration giving half of the maximal effect.
